# Measured values: patent US6780842B2, “Ceruloplasmin and an antioxidant composition comprising the same and their uses as neuroprotective agent” (Warner-Lambert Company LLC, priority 1999, dated 2004)
# What was measured:
# CP ferroxidase activity = CP ferroxidase activity after incubation with H2O2, without or with pyruvate; type: biochemical, bovine; conditions: FIG. 8; 5 mM pyruvate, CP 4 μM, 5 mM H2O2, 37° C.
# Description: CP (4 μM) was incubated for different times (ranging from 0 to 12 h) in the presence of 5 mM H2O2, at 37° C., in PBS, without or with the addition of pyruvate (5 mM) as a protecting agent. At the end of incubation, catalase was added at a concentration of 0.1 mg/ml (84 U/ml) and incubation resumed at room temperature for 15 min in order to inactivate H2O2. Ferroxidase activity of CP was then measured by absorbence using a modified version of the method of Erel (1998). This method uses a chromogen to complex Fe^2+ ions that were not transformed to Fe^3+ions in the assay solution. The reaction mix contained 0.45M acetate buffer, pH 5.8, 60 μM Fe(NH4)2(SO4).6H2O, and either CP (sample), 25 mM EDTA (control corresponding to 100% iron oxidation) or PBS (control corresponding to 0% iron oxidation).
# FIG. 8. Protection of CP ferroxidase activity by pyruvate in vitro. CP was incubated for various times, at 37° C., in the presence of 5 mM H2O2, without (No protection) or with 5 mM sodium pyruvate. The reaction was stopped by a 5 min incubation with an excess of catalase. Ferroxidase activity was then measured and expressed relatively (%) to that of a control CP sample not exposed to H2O2. The experiment was done three times, in duplicate determinations, and results are expressed as means±S.D.
# [1] = Atanasiu et al., 1998; cited from earlier work
# P19 neurons [2] = test: Viability of P19 neurons exposed to XA/XAO prooxidant system (Alamar Blue); type: cell-based; conditions: FIG. 3
# Description: (§1) Culture and neuronal differentiation of P19 embryonal carcinoma cells were done according to the procedures of Jeannotte et al. (1997) with the following modifications for microscale adaptation of cultures to 96-well plates: cell aggregates obtained at day 4 of the treatment of P19 cells with retinoic acid were trypsinized with 0.025% trypsin-1 mM EDTA in PBS and subjected to mechanical passages to obtain individual cells which were seeded in gelatin-precoated microwells at a density of 0.7-1×10^5 cells per well. The newly seeded cells (neurons) were cultured in supplemented Neurobasal medium (Neurobasal® containing 0.5 mM L-glutamine and 0.5% B27 supplement) until exposure to oxidative conditions at day 7. […]
# (§2) P19 neurons were exposed to the following prooxidant systems: i) XA/XAO system (which produces •O2^− superoxide radicals and hydrogen peroxide H2O2, according to equation 1, shown below); ii) hydrogen peroxide H2O2; and iii) H2O2/Fe^+2 system (which generates •OH [hydroxyl radicals] via the Fenton reaction, equation 2). […] After they were incubated under oxidative conditions, neurons were analyzed for their residual viability by a fluorimetric assay using the Alamar Blue probe (see section 2.5). […]
# (§3) After they were incubated under oxidative conditions, neurons were analyzed for their residual viability by a fluorimetric assay using the Alamar Blue probe. […]
# P19 neurons [3] = test: Viability of P19 neurons exposed to H2O2 (Alamar Blue); type: cell-based; conditions: catalase 84 U; 5 mM hydrogen peroxide during 30 min
# Description: as §1, §2, §3
# [4] = In vitro antioxidant capacity: inhibition of DPD oxidation by H2O2; type: biochemical; conditions: 84 U catalase; 30 min exposure to 5 mM H2O2 (not shown)
# Description: Oxidation of N,N-diethyl-p-phenylenediamine (DPD) by a prooxidant system was used as a general reporter of the amount of ROS generated by that system (Anonymous, 1985; Chahine et al., 1991). Antioxidant capacity of preparations of TRIAD (or of its components) was defined as the ability to inhibit the oxidation of DPD by prooxidants.
# To estimate the antioxidant capacity of TRIAD preparations in the prooxidant conditions used with P19 neurons, DPD was added to a final concentration of 32 mM to 200 μl of each prooxidant system described above (see section 2.4) and incubated for the times tested with the cells. At the end of incubation, the amount of oxidized DPD was determined at 560 nm using a spectrophotometer adapted to microscale measurement.
# FIG. 5. In vitro antioxidant capacity of CP and TRIAD, in the conditions of H2O2 prooxidant system used with P19 neurons. In this assay, conditions of incubation were as described in the legend to FIG. 4 except that P19 neurons were replaced by N,N-diethyl-p-phenylenediamine (DPD) which absorbs at 560 nm upon oxidation. The experiment was done four times, in triplicate determinations, and results are expressed as means±S.D.
molecule,measurement,setting,value
"CC(=O)C(=O)[O-].[Na+] [pyruvate, sodium pyruvate]",Protection of CP ferroxidase activity against H2O2,CP ferroxidase activity,inhibited the loss of ferroxidase activity
albumin,Concentration ensuring good antioxidative activity in vitro,[1],260 µM
catalase,XAO concentration up to which protection was offered,"P19 neurons [2]; 250 μM XA, CP 4 μM, catalase 84 U",up to 50 mU/mL
same,Protection to neurons,"P19 neurons [2]; 84 U catalase, incubated for 40 min with XAO in the presence of 250 μM XA",about 10%
same,Protection to neurons,P19 neurons [3],100%
same,Inhibition of DPD oxidation by H2O2,[4],completely inhibit DPD oxidation
